Experimental data as given in PubChem BioAssay (NCI).
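Dose response: 5 concentrations. Exposure: 48 h. Format: 96-well plates. Endpoint: linear interpolation; highest concentration if not reached. TGI marks complete inhibition of growth.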

Legend:
Assay in all cases: inhibition of tumour cell growth, NCI panel, 48 h
[1] = tested on: M14 melanoma
[2] = tested on: OVCAR-5 ovarian
[3] = tested on: K-562 leukemia
[4] = tested on: HOP-62 NSCLC
[5] = tested on: SK-MEL-2 melanoma
[6] = tested on: MCF7 breast
[7] = tested on: MDA-MB-231 breast
[8] = tested on: HL-60(TB) leukemia
[9] = tested on: HOP-92 NSCLC
[10] = tested on: OVCAR-8 ovarian

SMILES	TGI [1] [µM]	TGI [2] [µM]	TGI [3] [µM]	TGI [4] [µM]	TGI [5] [µM]	TGI [6] [µM]	TGI [7] [µM]	TGI [8] [µM]	TGI [9] [µM]	TGI [10] [µM]
O=C(CC(=O)Nc1ccccc1)NNC(Sc1ccccc1)c1cc(N=Nc2ccc(Br)cc2)ccc1O (stereo not drawn)	3.47	> 10	6.27	> 10	> 10	> 10	> 10	1.9	> 10	
CC(C)Oc1cccc(N2C(=NCc3c[nH]c4ccccc34)Nc3ccncc3S2(=O)=O)c1	62.6	> 100	> 100	> 100	51.3	> 100		> 100	56.6	> 100
CC(C(=O)COCc1ccccc1)P1(=O)OC(C)(C)CN1C(C)(C)C (stereo not drawn)	> 100	> 100		> 100		> 100		> 100	> 100	> 100
N#Cc1sc2c(c1OC(=O)c1ccc(C(F)(F)F)cc1)c(=O)n(-c1ccccc1)c(=S)n2-c1ccccc1	81.7	> 100	> 100	> 100		> 100	> 100	46.1	68.4	> 100
O=C(NN1C(=O)CS(=O)(=O)C1c1ccc(C(F)(F)F)cc1)c1ccncc1 (stereo not drawn)	> 100	> 100		> 100	> 100			> 100	> 100	
[N-]=[N+]=CC(=O)OC(CCl)CCl		> 100	> 100	> 100	> 100	> 100	> 100	> 100	> 100	
COc1cccc2c1OC(c1cccc3ccccc13)C([N+](=O)[O-])=C2 (stereo not drawn)	2.77	3.62	4.19	5.36		2.65	5.01	> 100		20.9
Cc1cc(OP2(=O)NCc3ncccc3O2)ccc1Cl (stereo not drawn)	> 100	> 100	> 100	> 100	> 100	> 100	> 100		> 100	> 100
Cc1ccnc(NC(=S)Nc2ccc([N+](=O)[O-])cc2)c1	> 100		> 100	> 100	> 100	> 100		> 100	> 100	> 100
Cc1cc(C[C@H]2O[C@@H]3OC(C)(C)O[C@@H]3[C@H]3OC(C)(C)O[C@H]32)c2ccccc2n1		> 100	> 100	> 100	> 100			51.5		> 100
COc1cc(O)c2c(=O)c(OC)c(-c3ccc(OC)c(O)c3)oc2c1	> 100	> 100	> 100	> 100	> 100	> 100	> 100	> 100		> 100
COc1cc(C2c3cc4c(cc3[C@@H](Nc3ccccc3)C3COC(=O)[C@H]23)OCO4)cc(OC)c1O (stereo partly drawn)		> 66.8	9.32	0.671	6.97	> 41.2		1.09	11.7	> 19.7
O=c1onc2n1-c1cc(Cl)ccc1C(=S)N1CSCC21 (stereo not drawn)	> 100	> 100	63.8	> 100	> 100	> 100	> 100			> 100
CC(C)C1=CC23CCC4C(C)(C(=O)O)CCCC4(C)C2CC1C1C(=O)N(CCCCCCN2C(=O)C4C5CC6C7(C)CCCC(C)(C(=O)O)C7CCC6(C=C5C(C)C)C4C2=O)C(=O)C13 (stereo not drawn)	27.5	37.4	> 100		28.2	21.7	36.8	82.6	36.2	24.9
CC(C)(CO)CNc1nc(N)nc(Cl)c1/C=N/O		> 100	> 100	> 100	> 100	> 100	> 100	> 100	84.7	> 100
C=C1C(=O)[C@@]23CC[C@@H]4[C@@]5(C)CCC[C@@]4(OC5=O)[C@@]2(C)CC[C@@H]1C3		6.27		> 23.7	8.12	2.21		> 100	57.7	8.54
CSc1csc(-c2ccc(-c3ccc(-c4cc(SC)cs4)s3)s2)c1	> 100	> 100	> 100	> 100	> 100	> 100	> 100			
O=C1NC(O)CCN1C1OC(CO)C(O)C1O (stereo not drawn)		> 145	> 250	> 250	> 158	> 250		> 250	> 250	> 250
O=C1CSC2(CC(/C=C/c3cccs3)=NN2c2cccc(S(=O)(=O)O)c2)N1c1nc2ccccc2s1 (stereo not drawn)	> 100	> 100	> 100		> 100	> 100	> 100	> 100	> 100	> 100
Cc1c2c(c(C)n1-c1ccccc1)C(=O)N(CCN1CCN(c3cccc(C(F)(F)F)c3)CC1)C2=O	> 100	> 100	> 100	> 100	> 100	> 100	> 100		> 100	> 100
C=C(C)CNCCN	> 100	> 100	> 100	> 100	> 100		> 100	> 100	> 100	> 100
Cn1ncc2c(NCc3ccccc3)ncnc21		> 100	> 100	> 100		> 100	> 100	> 100		> 100
Cc1cc(N(C)C)c2ccccc2[n+]1CCCCCCCCCC[n+]1c(C)cc(N(C)C)c2ccccc21	12	15.6	> 35.3		4.98	26.3	6.15	2.18	5.44	16
c1ccc(C(C(=Nc2ccc(Cc3ccc(N=C(C(c4ccccc4)c4ccccc4)N4CC4)cc3)cc2)N2CC2)c2ccccc2)cc1	70	24.5	17.6	33	24.6	15.4	29.2	18.4		22.5
O=C(OCC(Cl)(Cl)Cl)N1CC[C@H](C2CCCCC2)C1	39.8	34.4	53	32.8	30.4	34.9	96.2			
